The text below walks through data of PubChem BioAssay (NCI).

Among the test systems are BT-549 breast; HS 578T breast; MCF7 breast; MDA-MB-231 breast; MDA-MB-435; NCI/ADR-RES ovarian; MDA-N.
Common to all, as to assay: DTP human tumour cell line panel, 48 h

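These data come from cells grown in 96-well plates and exposed to compound for 48 hours at five concentrations. GI50 is the concentration that inhibits growth by half. TGI is the concentration that stops growth completely.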

In the case of `COc1ccc2c(c1)/C(=C\c1cccnc1)C(=O)N2`, the GI50 is 13.3 µM with BT-549 breast; 31.1 µM with HS 578T breast; 10.9 µM with MCF7 breast; 16.3 µM with MDA-MB-231 breast; 35.9 µM in the experiment with MDA-MB-435; 25.4 µM in the experiment with NCI/ADR-RES ovarian. For the same molecule, the TGI is 32.3 µM in the experiment on BT-549 breast; 94.7 µM in the experiment on HS 578T breast; 53.4 µM with MCF7 breast; 35.5 µM in the experiment with MDA-MB-231 breast; over 100 µM with MDA-MB-435; 70.1 µM in the experiment on NCI/ADR-RES ovarian.

Turning to `COc1ccc2c(c1)C(=O)c1c-2n(CCCN=[N+]=[N-])c(=O)c2cc(N(C)C)ccc12`, the GI50 in the experiment with BT-549 breast is 6.15 µM; in the experiment with HS 578T breast, 37.5 µM; in the experiment with MCF7 breast it was over 100 µM; with MDA-MB-231 breast, over 100 µM; with MDA-MB-435 it was over 100 µM; in the experiment with NCI/ADR-RES ovarian it was over 100 µM. Moreover, the TGI in the experiment on BT-549 breast, with HS 578T breast, in the experiment with MCF7 breast, in the experiment on MDA-MB-231 breast, in the experiment on MDA-MB-435 and with NCI/ADR-RES ovarian was over 100 µM each time.

`O=C1C=C(NCCNC(=S)Nc2ccccc2)c2nccc3c2c1nc1ccccc13`: the GI50 in the experiment with BT-549 breast is 70.1 µM; in the experiment on HS 578T breast it was over 100 µM; with MCF7 breast, 23.3 µM; in the experiment with MDA-MB-231 breast it was 94.5 µM; in the experiment on MDA-MB-435, 15.6 µM; with NCI/ADR-RES ovarian, over 100 µM. For the same molecule, the TGI was over 100 µM with BT-549 breast; over 100 µM in the experiment with HS 578T breast; over 100 µM with MCF7 breast; over 100 µM with MDA-MB-231 breast; 47.7 µM in the experiment on MDA-MB-435; over 100 µM in the experiment on NCI/ADR-RES ovarian.

Take `CCCCCCCNc1nc(C(=O)OCC)ncc1-c1ccc(C(F)(F)F)cc1`: the GI50 in the experiment with BT-549 breast is 29.1 µM; in the experiment with HS 578T breast, 46.6 µM; in the experiment on MCF7 breast it was 28.1 µM; in the experiment on MDA-MB-231 breast, 33.3 µM; in the experiment on MDA-MB-435, 32.1 µM; with NCI/ADR-RES ovarian, 34.5 µM. Also, the TGI with BT-549 breast was 97.7 µM; in the experiment with HS 578T breast, over 100 µM; in the experiment with MCF7 breast, over 100 µM; with MDA-MB-231 breast, over 100 µM; in the experiment on MDA-MB-435 it was over 100 µM; with NCI/ADR-RES ovarian it was over 100 µM.

`COc1ccc(N2Cc3cnc(Nc4ccccc4)nc3N([C@@H]3CC[C@@H](O)C3)C2=O)cc1`: the GI50 with BT-549 breast was 5.27 µM; in the experiment with HS 578T breast, 0.671 µM; with MCF7 breast, 16.5 µM; in the experiment with MDA-MB-231 breast it was 5.18 µM; in the experiment with MDA-MB-435, 5.98 µM; in the experiment on NCI/ADR-RES ovarian, 6.9 µM. Besides, the TGI in the experiment with BT-549 breast is over 25 µM; with HS 578T breast it was 6.2 µM; in the experiment on MCF7 breast, over 25 µM; with MDA-MB-231 breast it was over 22.3 µM; in the experiment with MDA-MB-435, over 25 µM; in the experiment on NCI/ADR-RES ovarian, over 25 µM.

With `Nc1ncnc2c1ncn2C1CCC(COS(N)(=O)=O)C1` (stereo not drawn), the TGI in the experiment with HS 578T breast, in the experiment on MCF7 breast, in the experiment on MDA-MB-231 breast, in the experiment on MDA-MB-435, in the experiment on MDA-N and with NCI/ADR-RES ovarian was over 100 µM in each case.

For `Oc1ccc(C(c2ccc(O)cc2)c2ccc(Cl)cn2)cc1`, the GI50 in the experiment with BT-549 breast is 0.0231 µM; in the experiment on HS 578T breast, 0.0216 µM; with MCF7 breast, 0.0546 µM; in the experiment with MDA-MB-231 breast it was 28 µM; in the experiment with MDA-MB-435 it was 23.3 µM; with NCI/ADR-RES ovarian, 0.0512 µM. The TGI is 0.0707 µM with BT-549 breast; 0.0624 µM in the experiment with HS 578T breast; 0.545 µM in the experiment on MCF7 breast; over 100 µM in the experiment on MDA-MB-231 breast; over 86.2 µM in the experiment on MDA-MB-435; 0.284 µM in the experiment with NCI/ADR-RES ovarian.

Regarding `COc1ccc(-c2nc3sc(-c4ccc(Cl)cc4)cn3n2)cc1`, the GI50 with BT-549 breast is 43.2 µM; in the experiment with HS 578T breast it was 2.31 µM; in the experiment on MCF7 breast it was 2.62 µM; in the experiment with MDA-MB-231 breast, 2.06 µM; in the experiment with MDA-MB-435 it was over 50 µM; in the experiment with NCI/ADR-RES ovarian, 3.75 µM. Further, the TGI is over 50 µM in the experiment on BT-549 breast; over 50 µM in the experiment on HS 578T breast; over 50 µM in the experiment on MCF7 breast; 16.7 µM in the experiment on MDA-MB-231 breast; over 50 µM in the experiment on MDA-MB-435; over 50 µM with NCI/ADR-RES ovarian.

`COc1ccc(C2SCC(=O)N2NC(=O)C(O)c2ccccc2)cc1OC` (stereo not drawn): the GI50 in the experiment with BT-549 breast, in the experiment on HS 578T breast, with MCF7 breast, in the experiment on MDA-MB-231 breast, in the experiment on MDA-MB-435 and in the experiment on NCI/ADR-RES ovarian was over 100 µM each time. Moreover, the total growth inhibition concentration (TGI) in the experiment with BT-549 breast, in the experiment on HS 578T breast, in the experiment on MCF7 breast, with MDA-MB-231 breast, in the experiment on MDA-MB-435 and in the experiment with NCI/ADR-RES ovarian was over 100 µM each time.

As to `Cc1ccc(S(=O)(=O)NCCNC2=CC(=O)c3nc4ccccc4c4ccnc2c34)cc1`, the GI50 was 19.2 µM in the experiment on BT-549 breast; 27 µM in the experiment with HS 578T breast; 12.9 µM in the experiment on MCF7 breast; 24 µM in the experiment with MDA-MB-231 breast; 17.7 µM in the experiment on MDA-MB-435; 17 µM in the experiment with NCI/ADR-RES ovarian. Further, the TGI in the experiment on BT-549 breast is 46.1 µM; with HS 578T breast, 79.9 µM; with MCF7 breast, 32.7 µM; in the experiment on MDA-MB-231 breast, 66.1 µM; in the experiment on MDA-MB-435, 41.2 µM; in the experiment with NCI/ADR-RES ovarian, 55.4 µM.

Regarding `C/C(=N\O)c1cccc(Nc2cc(-n3ccnn3)c3ccccc3n2)c1`, the GI50 in the experiment on BT-549 breast was 18.9 µM; in the experiment on HS 578T breast it was 16.4 µM; with MCF7 breast, over 100 µM; with MDA-MB-231 breast it was 10.2 µM; with MDA-MB-435, 15.4 µM; in the experiment on NCI/ADR-RES ovarian, 20.8 µM. Besides, the TGI was 53.9 µM in the experiment on BT-549 breast; 87.8 µM in the experiment with HS 578T breast; over 100 µM with MCF7 breast; 25.9 µM in the experiment with MDA-MB-231 breast; 34.2 µM in the experiment with MDA-MB-435; over 100 µM with NCI/ADR-RES ovarian.

Consider `O=C(Nc1ccc(F)cc1)c1ccc(NC2=C(Cl)C(=O)N(Cc3ccccc3)C2=O)cc1`, for which the GI50 in the experiment on BT-549 breast was 3.14 µM; with HS 578T breast, 13.2 µM; in the experiment on MCF7 breast it was 6.24 µM; with MDA-MB-231 breast, 17.2 µM; with MDA-MB-435, 7.07 µM; in the experiment on NCI/ADR-RES ovarian, 53.3 µM. In addition, the TGI with BT-549 breast was 10.8 µM; in the experiment on HS 578T breast it was 62.3 µM; in the experiment with MCF7 breast, over 100 µM; with MDA-MB-231 breast, 38 µM; with MDA-MB-435, 26.3 µM; in the experiment with NCI/ADR-RES ovarian, over 100 µM.

In general, GI50 refers to the concentration giving 50% growth inhibition. As usually defined, the TGI is the concentration giving total growth inhibition. Low readings indicate more potent growth arrest, high ones less potent growth arrest.
